Measurements taken from ChEMBL document CHEMBL1153926, “Evaluation of synthetic sphingolipid analogs as ligands for peroxisome proliferator-activated receptors” (Bioorg Med Chem Lett, 2009).
The source made the active and inactive calls. No cut-off for these calls is given here.

Key:
Type in all cases: cell-based
[1] = target: T1, Peroxisome proliferator-activated receptor alpha (Mus musculus) (UniProt P23204); assay: Transactivation of mouse recombinant PPARalpha expressed in mouse NIH3T3 cells at 0.1 uM to 10 uM by PPRE activation based dual luciferase reporter gene assay relative to control
T1 sequence (whole entry): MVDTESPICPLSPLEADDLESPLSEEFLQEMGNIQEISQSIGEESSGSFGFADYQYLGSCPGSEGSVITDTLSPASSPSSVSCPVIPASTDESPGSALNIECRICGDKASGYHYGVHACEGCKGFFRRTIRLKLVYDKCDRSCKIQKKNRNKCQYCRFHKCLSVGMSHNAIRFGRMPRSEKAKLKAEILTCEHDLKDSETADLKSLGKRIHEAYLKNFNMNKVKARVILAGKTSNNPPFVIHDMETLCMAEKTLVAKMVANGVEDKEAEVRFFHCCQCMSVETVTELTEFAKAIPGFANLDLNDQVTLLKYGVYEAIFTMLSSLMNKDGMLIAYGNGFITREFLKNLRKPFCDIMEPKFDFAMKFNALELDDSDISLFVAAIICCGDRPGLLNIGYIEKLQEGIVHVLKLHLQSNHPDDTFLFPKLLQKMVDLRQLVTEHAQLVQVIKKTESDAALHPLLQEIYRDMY

[2] = target: T2, Peroxisome proliferator-activated receptor delta (Mus musculus) (UniProt P35396); assay: Transactivation of mouse recombinant PPARbeta expressed in mouse NIH3T3 cells by PPRE activation based dual luciferase reporter gene assay relative to control
T2 sequence (whole entry): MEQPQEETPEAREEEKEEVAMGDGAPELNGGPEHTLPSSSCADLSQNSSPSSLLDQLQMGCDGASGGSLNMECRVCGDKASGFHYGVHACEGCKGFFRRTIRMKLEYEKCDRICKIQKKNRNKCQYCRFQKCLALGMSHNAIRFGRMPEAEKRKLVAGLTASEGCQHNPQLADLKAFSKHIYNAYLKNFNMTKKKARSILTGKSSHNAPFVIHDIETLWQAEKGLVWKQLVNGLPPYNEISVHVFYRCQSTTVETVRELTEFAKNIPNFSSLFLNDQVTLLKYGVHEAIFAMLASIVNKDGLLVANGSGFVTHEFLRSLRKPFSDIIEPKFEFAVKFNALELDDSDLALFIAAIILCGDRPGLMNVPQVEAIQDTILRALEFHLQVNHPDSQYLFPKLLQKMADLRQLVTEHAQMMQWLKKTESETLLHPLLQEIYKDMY

[3] = target: T1, Peroxisome proliferator-activated receptor alpha (Mus musculus); assay: Transactivation of mouse recombinant PPARalpha expressed in mouse NIH3T3 cells at 5 uM by PPRE activation based dual luciferase reporter gene assay relative to control
[4] = target: T3, Peroxisome proliferator-activated receptor gamma (Mus musculus) (UniProt P37238); assay: Transactivation of mouse recombinant PPARgamma expressed in mouse NIH3T3 cells by PPRE activation based dual luciferase reporter gene assay relative to control
T3 sequence (whole entry): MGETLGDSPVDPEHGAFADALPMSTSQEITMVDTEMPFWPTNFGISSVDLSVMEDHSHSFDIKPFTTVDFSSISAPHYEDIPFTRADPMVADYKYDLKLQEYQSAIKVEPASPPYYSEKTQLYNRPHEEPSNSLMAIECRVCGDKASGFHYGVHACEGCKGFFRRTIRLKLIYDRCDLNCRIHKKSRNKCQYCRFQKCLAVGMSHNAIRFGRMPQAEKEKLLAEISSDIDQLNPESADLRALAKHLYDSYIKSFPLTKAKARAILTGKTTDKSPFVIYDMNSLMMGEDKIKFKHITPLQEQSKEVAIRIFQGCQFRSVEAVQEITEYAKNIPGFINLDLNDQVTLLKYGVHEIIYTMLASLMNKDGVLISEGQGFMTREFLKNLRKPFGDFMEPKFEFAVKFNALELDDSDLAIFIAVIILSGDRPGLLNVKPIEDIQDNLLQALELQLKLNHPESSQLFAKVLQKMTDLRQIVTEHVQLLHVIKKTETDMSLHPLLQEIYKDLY

Row | SMILES | Activity [1] | Activity [2] | Activity [3] | Activity [4]
1 | Cc1cccc(Nc2cc(Cl)nc(SCC(=O)O)n2)c1C | Active |  |  | 
2 | CCCCCCCCCCCCCC[C@@H](O)[C@@H](O)[C@@H](CO)NC(=O)CCCCCCCCCCCCC |  | Dose-dependent effect | Active | Active
3 | CCCCCCCCCCCCCC[C@@H](O)[C@@H](O)[C@@H](CO)NC(=O)CBr |  |  |  | Active
4 | CCCCCCCCCCCCCC[C@H](O)[C@H](O)[C@@H](CO)NC(=O)[C@H](Cc1ccccc1)NC(=O)OC(C)(C)C | Active | Dose-dependent effect | Active | Active
5 | CCCCCCCCCCCCCC[C@H](O)[C@@H](O)[C@H](CO)NC(=O)[C@H](Cc1ccccc1)NC(=O)OC(C)(C)C | Active | Dose-dependent effect | Active | Active
6 | CCCCCCCCCCCCCC[C@H](O)[C@H](O)[C@H](CO)NC(=O)CCCCCCCCCCCCC |  | Dose-dependent effect | Active | Active

The remaining lines, values ahead:

Row | Activity [1] | Activity [2] | Activity [3] | Activity [4] | SMILES
7 |  |  |  | Active | CC1(COc2ccc(CC3SC(=O)NC3=O)cc2)CCCCC1 (centres undefined)
8 |  | Dose-dependent effect | Active | Active | CCCCCCCCCCCCCC[C@@H](O)[C@H](O)[C@H](CO)NC(=O)CCCCCCCCCCCCC
9 | Active | Dose-dependent effect | Active | Active | CCCCCCCCCCCCCC[C@@H](O)[C@H](O)[C@@H](CO)NC(=O)[C@H](Cc1ccccc1)NC(=O)OC(C)(C)C
